Laboratory results as given in ChEMBL document CHEMBL5029152, “Discovery of Highly Potent and Selective IRAK1 Degraders to Probe Scaffolding Functions of IRAK1 in ABC DLBCL” (J Med Chem, 2021).

Experiments:
[1] = Cytotoxicity against human HBL1 cells assessed as cell growth inhibition measured after 12 days by WST-8 assay; assay type: functional, cell-based; conditions: HBL1, 288 h
[2] = biological target: T1, Interleukin-1 receptor-associated kinase 4 (Homo sapiens, UniProt Q9NWZ3); assay: (§1) Inhibition of full length human N-terminal GST-fusion tagged IRAK4 expressed in baculovirus expression system using FAM-labelled peptide as substrate preincubated for 10 mins followed by substrate addition and further incubated for 1 hr in presence of ATP at Km concentration by caliper mobility shift assay
T1 sequence (Q9NWZ3 whole entry): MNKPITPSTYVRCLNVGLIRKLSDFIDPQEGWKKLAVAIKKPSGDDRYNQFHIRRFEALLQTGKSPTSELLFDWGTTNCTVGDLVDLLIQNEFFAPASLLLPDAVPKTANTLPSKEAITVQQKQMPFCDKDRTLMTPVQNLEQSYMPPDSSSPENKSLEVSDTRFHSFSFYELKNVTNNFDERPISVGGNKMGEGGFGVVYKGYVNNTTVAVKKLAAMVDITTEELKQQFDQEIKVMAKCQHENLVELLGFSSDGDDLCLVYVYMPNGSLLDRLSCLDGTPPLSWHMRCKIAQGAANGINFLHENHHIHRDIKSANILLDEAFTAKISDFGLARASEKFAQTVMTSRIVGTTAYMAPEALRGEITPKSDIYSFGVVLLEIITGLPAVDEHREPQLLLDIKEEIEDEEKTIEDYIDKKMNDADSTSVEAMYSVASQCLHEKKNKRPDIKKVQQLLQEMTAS

[3] = biological target: Interleukin-1 receptor-associated kinase 1 (Homo sapiens, UniProt P51617); assay: as §1, with “truncated” for “full length”, “IRAK1 (194 to 712 residues)” for “IRAK4”
[4] = biological target: T2, von Hippel-Lindau disease tumor suppressor/Interleukin-1 receptor-associated kinase 1 (Homo sapiens, UniProt P51617+P40337); assay: Protac activity at IRAK1/VHL E3 ligase in HEK293T cells assessed as induction of IRAK1 degradation measured after 24 hrs by Western blot analysis; assay type: cell-based
Target sequence in this assay (P51617 whole entry): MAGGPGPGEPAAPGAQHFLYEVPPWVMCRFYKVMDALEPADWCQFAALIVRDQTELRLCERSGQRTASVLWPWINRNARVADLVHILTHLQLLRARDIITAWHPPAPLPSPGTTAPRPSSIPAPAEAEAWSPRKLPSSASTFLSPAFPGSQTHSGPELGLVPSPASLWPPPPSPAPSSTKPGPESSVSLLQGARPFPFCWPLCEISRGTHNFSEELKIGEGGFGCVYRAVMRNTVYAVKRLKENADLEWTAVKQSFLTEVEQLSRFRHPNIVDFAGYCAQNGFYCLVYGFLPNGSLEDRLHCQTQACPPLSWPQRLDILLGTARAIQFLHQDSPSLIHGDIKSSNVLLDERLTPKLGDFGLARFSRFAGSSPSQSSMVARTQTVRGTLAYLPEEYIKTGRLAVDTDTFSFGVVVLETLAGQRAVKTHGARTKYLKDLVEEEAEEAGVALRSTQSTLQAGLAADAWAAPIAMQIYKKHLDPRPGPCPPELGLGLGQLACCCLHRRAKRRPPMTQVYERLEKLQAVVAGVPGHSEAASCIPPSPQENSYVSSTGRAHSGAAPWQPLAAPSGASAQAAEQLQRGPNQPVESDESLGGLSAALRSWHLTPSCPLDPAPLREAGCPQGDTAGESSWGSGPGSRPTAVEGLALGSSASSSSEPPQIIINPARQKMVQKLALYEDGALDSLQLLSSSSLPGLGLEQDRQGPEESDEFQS
Target sequence in this assay (P40337 whole entry): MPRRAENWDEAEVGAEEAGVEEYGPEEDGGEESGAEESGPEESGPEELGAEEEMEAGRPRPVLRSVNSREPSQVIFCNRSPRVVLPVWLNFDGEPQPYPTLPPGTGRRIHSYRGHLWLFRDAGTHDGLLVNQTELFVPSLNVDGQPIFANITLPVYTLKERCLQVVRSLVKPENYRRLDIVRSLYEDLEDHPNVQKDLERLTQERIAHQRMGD

[5] = biological target: T2, von Hippel-Lindau disease tumor suppressor/Interleukin-1 receptor-associated kinase 1; assay: Protac activity at IRAK1/VHL E3 ligase in HEK293T cells assessed as induction of IRAK1 degradation at >=1 uM measured after 8 hrs by Western blot analysis relative to control; assay type: cell-based; conditions: dose microM >=1, time 8.0 hrs
Target sequence in this assay (P40337 whole entry, looked up): as the sequence (P40337 whole entry) above
Target sequence in this assay (P51617 whole entry, looked up): as the sequence (P51617 whole entry) above

[6] = biological target: T2, von Hippel-Lindau disease tumor suppressor/Interleukin-1 receptor-associated kinase 1; assay: Protac activity at IRAK1/VHL E3 ligase in HEK293T cells assessed as induction of IRAK1 degradation at 10 uM measured after 24 hrs by Western blot analysis relative to control; assay type: cell-based
Target sequence in this assay (P40337 whole entry, looked up): as the sequence (P40337 whole entry) above
Target sequence in this assay (P51617 whole entry, looked up): as the sequence (P51617 whole entry) above

[7] = biological target: T2, von Hippel-Lindau disease tumor suppressor/Interleukin-1 receptor-associated kinase 1; assay: Protac activity at IRAK1/VHL E3 ligase in HEK293T cells assessed as induction of IRAK1 degradation at >=1 uM measured after 2 hrs by Western blot analysis relative to control; assay type: cell-based; conditions: dose microM >=1, time 2.0 hrs
Target sequence in this assay (P40337 whole entry, looked up): as the sequence (P40337 whole entry) above
Target sequence in this assay (P51617 whole entry, looked up): as the sequence (P51617 whole entry) above

[8] = biological target: von Hippel-Lindau disease tumor suppressor (Homo sapiens, UniProt P40337); assay: Displacement of 5-FAM-labelled DEALA-HypYIPMDDDFQLRSF peptide from VHL (unknown origin) by fluorescence polarization assay
[9] = Cytotoxicity against human HBL1 cells assessed as reduction in cell viability measured after 12 days by CellTiter-Glo assay; assay type: functional; conditions: time 12 day
OCI-Ly10 = assay: Cytotoxicity against human OCILY10 cells assessed as reduction in cell viability measured after 12 days by CellTiter-Glo assay; assay type: functional; conditions: time 12 day

Sequence of Interleukin-1 receptor-associated kinase 1 (P51617 whole entry, the tested form may be a part): as the sequence (P51617 whole entry) above
Sequence of von Hippel-Lindau disease tumor suppressor (P40337 whole entry): as the sequence (P40337 whole entry) above

Row | IC50 [2] [nM] | IC50 [3] [nM] | DC50 [4] [nM] | Activity [5] [%] | %max [6] [%] | Activity [7] [%] | IC50 [8] [nM] | SMILES | IC50 [1] [nM] | Activity [9] [µM] | Activity (OCI-Ly10) [µM]
1 | 24 | 23 |  |  |  |  |  | COc1cc(N2CCOCC2)ccc1NC(=O)c1cccc(-c2ccn[nH]2)n1 | 2800 |  | 
2 | 368 | 80 | 134 | > 90 | 88 | 50 | 1650 | COc1cc(N2CCN(CCC(=O)N[C@H](C(=O)N3C[C@H](O)C[C@H]3C(=O)NCc3ccc(-c4scnc4C)cc3)C(C)(C)C)CC2)ccc1NC(=O)c1cccc(-c2cc[nH]n2)n1 |  |  | 
3 | 320 | 79 | > 10000 |  | 18 |  | > 10000 | COc1cc(N2CCC(OCC(=O)N[C@H](C(=O)N3C[C@@H](O)C[C@H]3C(=O)N[C@@H](C)c3ccc(-c4scnc4C)cc3)C(C)(C)C)CC2)ccc1NC(=O)c1cccc(-c2ccn[nH]2)n1 |  | 1.5 | 3
4 | 260 | 60 |  |  | 95 |  | 1400 | COc1cc(N2CCC(OCC(=O)N[C@H](C(=O)N3C[C@H](O)C[C@H]3C(=O)NCc3ccc(-c4scnc4C)cc3)C(C)(C)C)CC2)ccc1NC(=O)c1cccc(-c2ccn[nH]2)n1 |  |  | 
